From US20240207353A1, “USE OF PEPTIDE AMIDE COMPOUND IN PREPARATION OF DRUG FOR TREATING PRURITUS” (XIZANG HAISCO PHARMACEUTICAL CO., LTD., priority 2021, published 2024)

Legend:
[1] = tested on: compound 48/80-induced scratching behaviour in mice; assay: Antipruritic effect by nasal drip in mouse models with pruritus induced by compound 48/80; type: in vivo, ICR mice
Description: (§1) ICR mice (males) from Beijing Vital River Laboratory Animal Technology Co., Ltd. were randomly grouped, and then different doses of compound 1 or normal saline were administered by nasal drip. After 15 min, 50 μg of compound 48/80 (Sigma, Cat #: C2313) was injected subcutaneously into the nape of the mice, and the times of scratching of mice within 30 min after injection of compound 48/80 was immediately recorded. The obtained data were processed according to the formula [(times of scratching in solvent control group−times of scratching in administration group)/times of scratching in solvent control group×100] to calculate the inhibition ratio on scratching. Statistical analysis was performed with Graphpad Prism 8 software, and fitting was performed to obtain the ED50 value.

[2] = tested on: haemodialysis subjects with pruritus; assay: Phase II clinical study of safety, pharmacokinetics and efficacy in haemodialysis subjects; type: in vivo, human
Description: For compound 1, a multi-centre, randomized, double-blind, placebo-controlled phase II clinical trial for evaluating the safety, pharmacokinetics and efficacy of compound 1 injection in haemodialysis subjects was performed. This study was divided into two phases.
Phase I was a dose-escalation, randomized, double-blind, placebo-controlled study of multiple intravenous administration within 1 week in haemodialysis subjects, in which 40 haemodialysis subjects were scheduled to be enrolled into 4 dose groups: 0.05 μg/kg, 0.15 μg/kg, 0.30 μg/kg and 0.80 μg/kg, with 10 subjects in each group (including 2 subjects in placebo group), and the experimental drug was administered 3 times in each dose group on D1, D3 and D5, respectively.
Phase II was a randomized, double-blind, placebo-controlled study of administration for 12 weeks in haemodialysis subjects with moderate or more severe pruritus. According to the results of phase I study, two dose groups (0.3 μg/kg and 0.6 μg/kg) and a placebo group as control were selected for phase II study, in which 90 haemodialysis subjects with moderate or more severe pruritus were scheduled to be enrolled and assigned to the above-mentioned three groups according to a ratio of 1:1:1, with 30 subjects scheduled to be enrolled in each group, and compound 1 injection or placebo was administered, respectively.

[3] = tested on: compound 48/80-induced scratching behaviour in mice; assay: Antipruritic effect in mouse models with pruritus induced by compound 48/80, intravenous administration; type: in vivo, ICR mice
Description: as §1, with “then administered intravenously with” for “then”, “saline.” for “saline were administered by nasal drip.”

[4] = tested on: serotonin hydrochloride-induced scratching behaviour in rats; assay: Antipruritic effect of single administration in rat models with pruritus induced by serotonin hydrochloride; type: in vivo, SD rats; settings: intravenous
Description: SD rats (males) from Beijing Vital River Laboratory Animal Technology Co., Ltd. were randomly grouped, and then administered intravenously with different doses of compound 1 or normal saline. After 15 min, 10 μL of 2% serotonin hydrochloride (Sigma) was injected intradermally into the nape of the rats, and the times of scratching of rats within 60 min after injection of serotonin hydrochloride was immediately recorded. The obtained data were processed according to the formula [(times of scratching in solvent control group−times of scratching in administration group)/times of scratching in solvent control group×100] to calculate the inhibition ratio on scratching. Statistical analysis was performed with Graphpad Prism 8 software, and fitting was performed to obtain the ED50 value.

[5] = 15 min before compound 48/80 s.c., scratching within 30 min
[6] = maintenance haemodialysis, dose of 0.05 μg/kg to 0.80 μg/kg
[7] = maintenance haemodialysis, multiple times a week for consecutive 12 weeks
[8] = phase I, 0.05-0.80 μg/kg i.v. on D1, D3, D5, each group after treatment
[9] = phase II, 0.3 and 0.6 μg/kg, 12 weeks, each group after treatment
[10] = 15 min before serotonin hydrochloride intradermal, scratching within 60 min

With `CC(=O)N1CC2(CCN(C(=O)[C@@H](CCCCN)NC(=O)[C@@H](CC(C)C)NC(=O)[C@@H](Cc3ccccc3)NC(=O)[C@H](N)Cc3ccccc3)CC2)C1` [Compound 1, (2R)—N-[(1R)-1-(2-acetyl-2,7-diazaspiro[3.5]nonane-7-carbonyl)-5-amino-pentyl]-2-[[(2R)-2-[[(2R)-2-amino-3-phenyl-propionyl]amino]-3-phenylpropionyl]amino]-4-methyl-pentanamide] the “inhibition of compound 48/80-induced scratching behaviour” value [1] was “inhibited the compound 48/80-induced scratching behaviour in mice in a dose-dependent manner”, the “ED50 value (inhibition ratio on scratching)” value [1, 5] was 2.72 mg/kg and the antipruritic effective dose [1, 5] was 0.3 mg/kg. The “improvement compared to the placebo group” value ([2]; 0.30 μg/kg group) was “more significant improvement”, the “maintenance of therapeutic effects after discontinuation” value ([2]; 0.30 μg/kg group) was “good maintenance of therapeutic effects after discontinuation” and the safety [2, 6] was “generally safe”. For the same compound, the “serious adverse events related to the experimental drug” value [2, 6] was “no serious adverse events related to the experimental drug”, the “withdrawal tendency after discontinuation” value [2, 6] was “no obvious withdrawal tendency after discontinuation” and the “overall quality of life” value [2, 7] was “improved”. The “pruritus symptoms in patients with chronic kidney diseases” value [2, 7] was “could be effectively relieved”, the NRS scores [2, 8] was “all decreased compared to baseline” and the “total score of Skindex-16 scale” value [2, 8] was “decreased”. For the same compound, the NRS scores [2, 9] was “all decreased compared to baseline”, the “total score and dimension scores of 5-D scale” value [2, 9] was “all decreased compared to baseline” and the “total score and dimension scores of Skindex-16 scale” value [2, 9] was “all decreased compared to baseline”. For the same compound, the “inhibition of compound 48/80-induced scratching behaviour” value [3] was “inhibited the compound 48/80-induced scratching behaviour in mice in a dose-dependent manner”, the “ED50 value (inhibition ratio on scratching)” value [3, 5] was 0.09 mg/kg and the antipruritic effective dose [3, 5] was 0.03 mg/kg. The “inhibition of serotonin hydrochloride-induced scratching behaviour” value [4] was “inhibited the serotonin hydrochloride-induced scratching behaviour in rats in a dose-dependent manner”, the “ED50 value (inhibition ratio on scratching)” value [4, 10] was 0.03 mg/kg and the antipruritic effective dose [4, 10] was 0.03 mg/kg.
